Assay results published in US20050004068A1, “Modulation of tor” (priority 2001, published 2005).
“And” between values parts separate entries of the source, which are not always exact repeats. Equal entries are not always repeated. “Also recorded” adds a separate entry of the source. Where two headings read alike, the source gives them in different places.

Tests used:
aminoacylated tRNA = assay: tRNA aminoacylation in HEK293 cells (acid/urea gel, Northern blot); assay type: cell-based, human; settings: HEK293, insulin stimulation with 2-deoxyglucose
Method: Briefly, total RNA was isolated from serum-starved HEK293 cells directly or after insulin stimulation with or without 2-deoxyglucose or amino acid starvation. As a control marker, tRNA was […] by mild alkaline hydrolysis in 0.1 M Tris-HCl (pH 8.0) at 75° C. for 5 min. After resolution on an acid/urea gel (Enriquez et al., in Methods Enzymol., Acad. Press, San Diego, vol. 264, pp. 183.), tRNA was visualized with ethidium bromide staining. Expression levels and phosphorylation state of endogenous S6K1 and 4E-BP1 were also measured from serum-starved cells, stimulated with insulin in the presence or absence of amino acids in the media essentially as described in Example 1.
To further test this finding, selected tRNAs were examined by Northern blot analysis of the tRNA resolved by acid/urea gel electrophoresis as described above. The individual tRNA species were probed after electrotransfer to nylon membrane, with radiolabelled oligonucleotides specific for tRNALeu and tRNAHis, namely: tRNALeu 5′-GCGCCTTAGACCGCTCGGCCACG-3′ (SEQ ID NO:1); tRNAHis 5′-GGTGCCGTGACTCGGATTCGAACCG-3′ (SEQ ID NO:2); and tRNAThr 5′-GCG AGA AAT GM CTC GCG-3′ (SEQ ID NO:3).

[1] = system: S6K1 (T389 phosphorylation / activation; reporter for mTOR function); assay: Insulin-induced S6K1 activation and T389 phosphorylation in HEK293 cells (reporter for mTOR function); assay type: cell-based, human; settings: HEK293, 200 nM insulin, 100 mM 2-deoxyglucose or 20 mM rotenone, 30 min
Method: Because mTOR is sensitive to amino acids and regulates ribosome biogenesis (Dennis et al., 1999; Gingras et al., 2001; Schmelzle and Hall, 2000), we tested whether its activity may be sensitive to metabolic inhibitors. We used, insulin-induced S6K1 activation and 4E-BP1 phosphorylation as reporters for mTOR function in the presence of glycolytic or mitochohdrial inhibitors to reduce ATP production.
Briefly, human embryonic kidney cells (HEK293) were seeded and maintained as previously described (Pullen et al., Science 279, 707 (1998)). Confluent cells were serum starved for 20 h and then extracted (controls) or treated with 200 nM insulin in the precence or absence of 100 mM 2-deoxyglucose or 20 mM rotenone for 30 min. Cell extraction, kinase assays and Western blot analysis (used to measure S6K1 levels and T389 phosphorylation) were performed as described (Pullen et al.,1998). Phosphospecific antibodies are commercially available (e.g., New England Biolabs).

[2] = system: HEK293 cells (intracellular ATP); assay: Intracellular ATP levels in HEK293 cells, luciferase-based assay; assay type: cell-based, human; settings: for ATP levels compared to insulin stimulated control (100%): Example 4; for ATP levels as a percentage of the insulin-stimulated control (100%): mock-transfected HEK293, insulin-stimulated, treated as in Example 1 (100 mM 2-deoxyglucose or 20 mM rotenone, 30 min)
Method: Because mTOR is sensitive to glycolitic inhibitors, we wanted to determine whether mTOR is sensitive to alterations in intracellular ATP concentrations. ATP levels were measured from mock-transfected HEK293 cells (using empty vector) treated as in Example 1, using a luciferase-based assay. Retonone and 2-deoxyglucose treatments were carried out on insulin-stimulated cells.
To generate extracts for ATP assays, cells were washed twice with 10 ml ice cold PBS, drained thoroughly, scraped into 1 ml of buffer (100 mM Tris-HCl and 4 mM EDTA pH 7.75) and transferred into an Eppendorf tube before flash freezing in liquid nitrogen. The frozen cells were boiled for 3 min and then placed on ice for 5 min followed by centrifugation at 13,000 rpm for 5 min at 4° C. ATP levels in the extract were measured in a microtiter plate by a Luciferase-based assay (Roche, ATP Bioluminescence Assay Kit CLS II) using a Microlumat LB96P microtiter plate reader (EG&G Berthold). In an illustrative set of experiments and expressing results as a percentage of the insulin-stimulated control (100%), ATP levels increased slightly in insulin treated cells (94% in unstimulated cells), decreased in 2-deoxyglucose treated cells (40-49%) and rotenone-treated cells (75-83%).
(§1) Rapamycin resistance was conferred by fusing glutathione-S-transferase to the NH2-terminus of S6K1 and truncating the COOH-terminus, creating a construct termed GST-ΔC-S6K1 (Pullen et al.,1 998). For the construction of the GST-ΔC-S6K1 (also known as GST-ΔC104-S6K1) and D3E, K100Q-S6K1-GST plasmids, similar cloning strategies were used. S6K1-GST or GST-ΔC-S6K1 from transiently-transfected, serum-starved HEK293 cells were extracted directly or after insulin stimulation with or without the addition of 20 nM rapamycin or 100 nM wortmannin. Kinase activities, expression levels and T389 phosphorylation were carried out essentially as described above. Expression and activity of S6K1-GST or GST-ΔC-S6K1 were measured after insulin stimulation alone or with increasing amounts of 2-deoxyglucose (20, 40 and 100 mM) essentially as described above. Mock-transfected HEK293 cells were treated using the same conditions and extracted for ATP analysis

S6K1-GST = assay: Insulin-induced activation of S6K1-GST (rapamycin sensitive) in transfected HEK293 cells; assay type: cell-based, human; settings: 20 nM rapamycin, 100 nM wortmannin, or 2-deoxyglucose 20, 40 and 100 mM
From the text: as §1

Protein Kinase B (PKB) = assay: Insulin-induced HA-PKB activation (S473 phosphorylation, in vitro H2B phosphorylation); assay type: cell-based, human; settings: 100 mM 2-deoxyglucose, 20 nM rapamycin or 100 nM wortmannin
Method: (§2) Transiently-transfected, HA-tagged PKB activation was measured in vitro using histone 2B (H2B) as substrate (Franke et al., 1995, Cell 81, 727) after immunoprecipitation from serum-starved cells extracted directly or after insulin stimulation with or without the addition of 100 mM 2-deoxyglucose, 20 nM rapamycin or 100 nM wortmannin. Rapamycin and wortmannin were added to serum-starved cells 30 min prior to insulin-stimulation. HA-PKB expression and S473 phosphorylation were measured essentially as described above. HA-MAPK kinase activity toward using myelin basic protein (MBP) was measured from serum-starved cells extracted directly or after 100 nM TPA stimulation in the presence or absence of 20 nM rapamycin or 100 mM 2-deoxyglucose for 30 min (N. Pullen et al., 1998).

[3] = system: Mitogen-Activated Protein Kinase (MAPK); assay: TPA-induced HA-MAPK activation (MBP phosphorylation); assay type: cell-based, human; settings: 100 nM TPA, 100 mM 2-deoxyglucose, 30 min
Method: as §2

[4] = system: 4E-BP1 (S65 phosphorylation; mTOR-mediated site); assay type: cell-based, human
Method: Transfections were carried out essentially as described by Manteuffel et al., 1997, Mol Cell. Biol. 17, 5426 with the 4EBP-1 construct described therein. The expression and phosphorylation of transiently-transfected HA-4E-BP1 was measured using a polyclonal anti-HA antibody and phosphospecific antibody against S65, respectively, essentially as described above (Pullen et al., 1998). The anti-HA antibody was obtained from a commercial source (Santa Cruz Biotechnology, Inc). The mTOR-mediated phosphorylation site in 4E-BP1 is S65.

[5] = system: HEK293 cells (amino acid levels); assay: Levels of individual amino acids in extracts of insulin-stimulated HEK293 cells; assay type: cell-based, human; settings: 100 mM 2-deoxyglucose
Method: Levels of individual amino acids were measured in extracts prepared from insulin-stimulated HEK293 cells in the presence or absence of amino acids or with 100 mM 2-deoxyglucose treatment and expressed as a percentage of the insulin-stimulated control in the presence of amino acids. Briefly, confluent cultures of HEK293 cells were treated as described above, washed with PBS and drained thoroughly. The cells were then scraped into […] water and sonicated with four 10 sec pulses. Cell debris was removed by centrifugation and sulfosalicylic acid was added to the supernatant to a final concentration of 2%. The samples were then placed on ice for 30 min followed by centrifugation to remove precipitated proteins. The extracts were then analyzed for amino acid content with a Biochrom 20 plus amino acid analyzer (Amersham-Pharmacia Biotech).

GST-ΔC-S6K1 = assay: Insulin-induced activation of GST-ΔC-S6K1 (rapamycin-resistant allele) in transfected HEK293 cells; assay type: cell-based, human; settings: 20 nM rapamycin, 100 nM wortmannin, or 2-deoxyglucose 20, 40 and 100 mM
From the text: as §1

mTOR (HA-mTORwt) [6] = target: T1, mTOR (HA-mTORwt) (Homo sapiens, UniProt P42345); assay: In vitro T389 kinase activity of HA-mTORwt immunoprecipitated from treated HEK293 cells; assay type: cell-based; settings: cells treated with 100 mM 2-deoxyglucose; assay with 1 mM ATP, 30 min at 30° C.
T1 construct: expressed in transfected cells; host or cells: HEK293 (anti-HA immunoprecipitate)
Method: (§3) Briefly, transiently transfected, hemaglutinin-tagged (HA) wild-type mTOR (HA-mTORwt) from HEK293 cells were serum starved for 16 hours before insulin stimulation. The cells were then treated with (or controls without) 100 mM 2-deoxyglucose or subjected to amino acid starvation as described above. Cell extracts were prepared for immunoprecipitations with a monoclonal anti-HA antibody. The immunocomplex was washed once with 1 M NaCl in assay buffer (30 mM MOPS (pH7.5), 5 mM NaF, 20 mM β-glycerol phosphate, 1 mM dithioerythritol, 0.1% Triton X-100 and 10% glycerol) and twice with assay buffer alone. […] Quantitation for Km measurements was carried out using scanning densitometry and ImageQuant software (Molecular Dynamics).

most protein kinases = settings: read-out: Km for ATP of most cellular kinases; cited from earlier work
mTOR (HA-mTORwt) [7] = target: T1, mTOR (HA-mTORwt); assay: mTOR in vitro kinase activity at varying ATP concentrations (apparent Km for ATP); assay type: biochemical; settings: S6K1 T389 phosphorylation, ATP 0.2-3.0 mM
Method: as §3
Next, we measured mTOR activity in vitro at ATP concentrations that approached physiological levels of 1-5 mM In mammalian cells (Gribble et al., 2000, J.Biol.Chem. 275, 30046).

[8] = insulin stimulated HEK293 transfected with HA-4E-BP1, Western blot
[9] = summary: S6K1 T389 and 4E-BP1 S65 in insulin-stimulated HEK293

O=CC[C@@H](O)[C@H](O)[C@H](O)CO [2-deoxyglucose]
effect on total amounts of aminoacylated tRNA (aminoacylated tRNA): Neither insulin stimulation nor 2-deoxyglucose treatment had an effect
inhibition of insulin-induced S6K1 T389 phosphorylation and S6K1 activation (S6 phosphorylation) [1]: reducing phosphorylation/activation to background levels; also recorded: blocked insulin-induced activation of S6K1
ATP levels compared to insulin stimulated control (100%) ([2]; 20 nM 2-deoxyglucose (so in the source)): 57-59%
ATP levels compared to insulin stimulated control (100%) ([2]; 40 nM 2-deoxyglucose (so in the source)): 43-48%
ATP levels compared to insulin stimulated control (100%) ([2]; 100 nM 2-deoxyglucose (so in the source)): 32-36%
ATP levels as a percentage of the insulin-stimulated control (100%) [2]: 40-49%
insulin-induced phosphorylation/activation of S6K1-GST (S6K1-GST): reduced insulin-induced activation of S6K1-GST
insulin-induced activation of PKB, as judged by S473 phosphorylation and in vitro phosphorylation of H2B (Protein Kinase B (PKB)): did not inhibit
TPA-induced MAPK activation, as judged by MBP phosphorylation [3]: no discernable effect
inhibition of 4E-BP1 S65 phosphorylation [4, 8]: inhibit 4EBP-1 S65 phosphorylation to background levels
inhibition of phosphorylation of mTOR targets (summary of Example 1) [4, 9]: able to reduce phosphorylation of mTOR targets to background levels
amino acid levels (Ala, Glu, Leu, Ile and Val) as a percentage of the insulin-stimulated control in the presence of amino acids [5]: 100-120%
insulin-induced phosphorylation/activation of GST-ΔC-S6K1 (GST-ΔC-S6K1): unaffected
effect on kinase activity of mTOR in vitro towards T389 of S6K1 (mTOR (HA-mTORwt) [6]): no effect

Nc1ncnc2c1ncn2[C@@H]1O[C@H](COP(=O)(O)OP(=O)(O)OP(=O)(O)O)[C@@H](O)[C@H]1O [ATP]
Km (most protein kinases): 10 to 20 µM
Km (mTOR (HA-mTORwt) [7]): ≥ 1000 µM and 1000 µM

O=C(O)CI [iodoacetic acid]
inhibition of 4E-BP1 S65 phosphorylation [4]: more efficient than dinitrophenol
inhibition of phosphorylation of mTOR targets (summary of Example 1) [4]: able to reduce phosphorylation of mTOR targets to background levels

CO[C@H]1C[C@@H]2CC[C@@H](C)[C@@](O)(O2)C(=O)C(=O)N2CCCC[C@H]2C(=O)O[C@H]([C@H](C)C[C@@H]2CC[C@@H](O)[C@H](OC)C2)CC(=O)[C@H](C)/C=C(\C)[C@@H](O)[C@@H](OC)C(=O)[C@H](C)C[C@H](C)/C=C/C=C/C=C/1C [rapamycin]
insulin-induced activation of PKB, as judged by S473 phosphorylation and in vitro phosphorylation of H2B (Protein Kinase B (PKB)): did not inhibit

C=C(C)[C@H]1Cc2c(ccc3c2O[C@@H]2COc4cc(OC)c(OC)cc4[C@@H]2C3=O)O1 [rotenone]
inhibition of insulin-induced S6K1 T389 phosphorylation and S6K1 activation (S6 phosphorylation) [1]: inhibitory effect
ATP levels as a percentage of the insulin-stimulated control (100%) [2]: 75-83%
inhibition of 4E-BP1 S65 phosphorylation [4, 8]: inhibitory effect
inhibition of phosphorylation of mTOR targets (summary of Example 1) [4, 9]: able to inhibit phosphorylation of mTOR targets
